Measured values published in patent US20170362243A1, “BIARYLETHER IMIDAZOPYRAZINE BTK INHIBITORS” (MERCK SHARP & DOHME CORP., priority 2014, published 2017).

Biological target: T1, BTK enzyme (recombinant full-length BTK, hBTK) (Homo sapiens, UniProt Q06187)
T1 construct: recombinant protein from baculovirus-transfected Sf9 cells: full-length BTK, 6HIS-tag cleaved; 6HIS (cleaved yes); made in house; host or cells: baculovirus-transfected Sf9 cells
Experiment: Btk enzyme activity assay, LANCE TR-FRET
Type: biochemical
Settings: 50 pM hBTK, 2 μM biotin-A5-peptide, 25 μM ATP, 60 minute compound & enzyme incubation, read-out: BTK binding IC50
Description: BTK enzymatic activity was determined with the LANCE (Lanthanide Chelate Excite) TR-FRET (Time-resolved fluorescence resonance energy transfer) assay. In this assay, the potency (IC50) of each compound was determined from an eleven point (1:3 serial dilution; final compound concentration range in assay from 1 μM to 0.017 nM) titration curve using the following outlined procedure. To each well of a black non-binding surface Corning 384-well microplate (Corning Catalog #3820), 5 nL of compound (2000 fold dilution in final assay volume of 10 μL) was dispensed, followed by the addition of 7.5 μL of 1× kinase buffer (50 mM Hepes 7.5, 10 mM MgCl2, 0.01% Brij-35, 1 mM EGTA, 0.05% BSA & 1 mM DTT) containing 5.09 pg/μL (66.67 pM) of BTK enzyme (recombinant protein from baculovirus-transfected Sf9 cells: full-length BTK, 6HIS-tag cleaved). Following a 60 minute compound & enzyme incubation, each reaction was initiated by the addition of 2.5 μL 1× kinase buffer containing 8 μM biotinylated “A5” peptide (Biotin-EQEDEPEGDYFEWLE-NH2) (SEQ.ID.NO.: 1), and 100 μM ATP. The final reaction in each well of 10 μL consists of 50 pM hBTK, 2 μM biotin-A5-peptide, and 25 μM ATP. Phosphorylation reactions were allowed to proceed for 120 minutes. Reactions were immediately quenched by the addition of 20 uL of 1× quench buffer (15 mM EDTA, 25 mM Hepes 7.3, and 0.1% Triton X-100) containing detection reagents (0.626 nM of LANCE-Eu-W1024-anti-phosphoTyrosine antibody, PerkinElmer and 86.8 nM of Streptavidin-conjugated Dylight 650, Dyomics/ThermoFisher Scientific). After 60 minutes incubation with detection reagents, reaction plates were read on a PerkinElmer EnVision plate reader using standard TR-FRET protocol. Briefly, excitation of donor molecules (Eu-chelate:anti-phospho-antibody) with a laser light source at 337 nm produces energy that can be transferred to Dylight-650 acceptor molecules if this donor:acceptor pair is within close proximity. Fluorescence intensity at both 665 nm (acceptor) and 615 nm (donor) are measured and a TR-FRET ratio calculated for each well (acceptor intensity/donor intensity). IC50 values were determined by 4 parameter robust fit of TR-FRET ratio values vs. (Log10) compound concentrations.
The following Table 3 provides specific IC50 values for all the examples. The IC50 values set forth below were determined according to Assay method described above.

T1 sequence (Q06187 whole entry): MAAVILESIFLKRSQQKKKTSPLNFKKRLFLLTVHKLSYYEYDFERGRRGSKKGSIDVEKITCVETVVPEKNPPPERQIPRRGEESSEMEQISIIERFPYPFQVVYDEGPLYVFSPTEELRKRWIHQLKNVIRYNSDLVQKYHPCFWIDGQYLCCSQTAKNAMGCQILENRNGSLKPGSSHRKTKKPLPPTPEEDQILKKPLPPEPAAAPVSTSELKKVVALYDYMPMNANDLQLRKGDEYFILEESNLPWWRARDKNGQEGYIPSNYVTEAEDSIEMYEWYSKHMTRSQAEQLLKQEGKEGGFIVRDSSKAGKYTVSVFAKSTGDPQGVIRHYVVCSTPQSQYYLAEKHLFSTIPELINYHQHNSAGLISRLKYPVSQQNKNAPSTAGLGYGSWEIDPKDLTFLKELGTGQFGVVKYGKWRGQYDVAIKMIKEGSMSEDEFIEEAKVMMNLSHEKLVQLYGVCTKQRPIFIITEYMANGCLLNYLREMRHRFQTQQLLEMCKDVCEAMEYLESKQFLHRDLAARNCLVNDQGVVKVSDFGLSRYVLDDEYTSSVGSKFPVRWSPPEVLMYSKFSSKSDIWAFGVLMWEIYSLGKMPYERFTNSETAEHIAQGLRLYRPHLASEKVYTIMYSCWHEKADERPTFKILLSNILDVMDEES

Row | IC50 | Structure (SMILES)
1 | 0.3 nM | Nc1nccn2c(C34C5C6C3C3C4C5C63C(=O)O)nc(-c3ccc(Oc4ccccc4)cc3)c12 (stereo not drawn) [Example 23, 4-(8-amino-1-(4-phenoxyphenyl)imidazo[1,5-a]pyrazin-3-yl)cubane-1-carboxylic acid]
2 | 79.6 nM | Nc1nccn2c(C3(C(=O)O)CCOCC3)nc(-c3ccc(Oc4ccccc4)cc3)c12 [Example 24, 4-[8-amino-1-(4-phenoxyphenyl)imidazo[1,5-a]pyrazin-3-yl]tetrahydro-2H-pyran-4-carboxylic acid]
3 | 12.3 nM | C[C@]1(C(=O)O)CC[C@H](c2nc(-c3ccc(Oc4ccccc4)cc3)c3c(N)nccn32)CC1 [Example 25, Trans-4-[8-amino-1-(4-phenoxyphenyl)imidazo[1,5-a]pyrazin-3-yl]-1-methylcyclohexane carboxylic acid]
